Reference: ChEMBL document CHEMBL4411299, “A class of novel tubulin polymerization inhibitors exert effective anti-tumor activity via mitotic catastrophe” (Eur J Med Chem, 2019)
Calls of active or inactive are those of the source. The calls are words filed in the database; no cut-off is given here.

Columns and labels:
HepG2 = assay: Antiproliferative activity against human HepG2 cells after 48 hrs by MTT assay; format: functional; conditions: HepG2, 48 h
A549 = assay: Antiproliferative activity against human A549 cells after 48 hrs by MTT assay; format: functional; conditions: A549, 48 h
HT-29 = assay: Antiproliferative activity against human HT-29 cells after 48 hrs by MTT assay; format: functional; conditions: HT-29, 48 h
HeLa [1] = assay: Antiproliferative activity against human HeLa cells after 48 hrs by MTT assay; format: functional
MDA-MB-231 = assay: Antiproliferative activity against human MDA-MB-231 cells after 48 hrs by MTT assay; format: functional; conditions: MDA-MB-231, 48 h
A2780 = assay: Antiproliferative activity against human A2780 cells after 48 hrs by MTT assay; format: functional; conditions: A2780, 48 h
HeLa [2] = assay: Inhibition of colony formation in human HeLa cells after 2 weeks by crystal violet staining-based assay; format: functional, cell-based
HeLa [3] = assay: Induction of apoptosis in human HeLa cells assessed as viable cells at 0.2 uM after 24 hrs by Annexin V-FITC/propidium iodide staining-based flow cytometric analysis (reference value: 92.8%); format: functional; conditions: read-out: Activity
HeLa [4] = assay: Induction of apoptosis in human HeLa cells assessed as early apoptotic cells at 0.2 uM after 24 hrs by Annexin V-FITC/propidium iodide staining-based flow cytometric analysis (reference value: 3.65%); format: functional
HeLa [5] = assay: Induction of apoptosis in human HeLa cells assessed as late apoptotic cells at 0.2 uM after 24 hrs by Annexin V-FITC/propidium iodide staining-based flow cytometric analysis (reference value: 3.51%); format: functional
HeLa [6] = assay: Induction of apoptosis in human HeLa cells assessed as necrotic cells at 0.2 uM after 24 hrs by Annexin V-FITC/propidium iodide staining-based flow cytometric analysis (reference value: 0.05%); format: functional
HeLa [7] = assay: Induction of apoptosis in human HeLa cells assessed as viable cells at 0.4 uM after 24 hrs by Annexin V-FITC/propidium iodide staining-based flow cytometric analysis (reference value: 92.8%); format: functional; conditions: read-out: Activity
HeLa [8] = assay: Induction of apoptosis in human HeLa cells assessed as early apoptotic cells at 0.4 uM after 24 hrs by Annexin V-FITC/propidium iodide staining-based flow cytometric analysis (reference value: 3.65%); format: functional
HeLa [9] = assay: Induction of apoptosis in human HeLa cells assessed as late apoptotic cells at 0.4 uM after 24 hrs by Annexin V-FITC/propidium iodide staining-based flow cytometric analysis (reference value: 3.51%); format: functional
HeLa [10] = assay: Induction of apoptosis in human HeLa cells assessed as necrotic cells at 0.4 uM after 24 hrs by Annexin V-FITC/propidium iodide staining-based flow cytometric analysis (reference value: 0.05%); format: functional
HeLa [11] = assay: Cell cycle arrest in human HeLa cells assessed as accumulation of cells at G2/M phase at 0.1 to 2 uM after 6 to 24 hrs by propidium iodide staining-based flow cytometric analysis; format: functional
HeLa [12] = assay: Induction of apoptosis in human HeLa cells assessed as viable cells at 0.05 uM after 24 hrs by Annexin V-FITC/propidium iodide staining-based flow cytometric analysis (reference value: 92.8%); format: functional; conditions: read-out: Activity
HeLa [13] = assay: Induction of apoptosis in human HeLa cells assessed as early apoptotic cells at 0.05 uM after 24 hrs by Annexin V-FITC/propidium iodide staining-based flow cytometric analysis (reference value: 3.65%); format: functional
HeLa [14] = assay: Induction of apoptosis in human HeLa cells assessed as late apoptotic cells at 0.05 uM after 24 hrs by Annexin V-FITC/propidium iodide staining-based flow cytometric analysis (reference value: 3.51%); format: functional
HeLa [15] = assay: Induction of apoptosis in human HeLa cells assessed as necrotic cells at 0.05 uM after 24 hrs by Annexin V-FITC/propidium iodide staining-based flow cytometric analysis (reference value: 0.05%); format: functional
HeLa [16] = assay: Antitumor activity against human HeLa cells xenografted in nude mouse assessed as tumor growth inhibition at 10 mg/kg, iv administered every other day up to 20 days relative to control; format: functional; conditions: 480 h, read-out: TGI
HeLa [17] = assay: Antitumor activity against human HeLa cells xenografted in nude mouse assessed as tumor weight at 10 mg/kg, iv administered every other day up to 20 days (reference value: 1.014 +/- 0.116g); format: functional

Compound	GI50 (HepG2)	GI50 (A549)	GI50 (HT-29)	GI50 (HeLa [1])	GI50 (MDA-MB-231)	GI50 (A2780)	other results
COC(=O)N1N=C(c2ccc(O)cc2)CC1c1cc(OC)c(OC)c(OC)c1 (stereo unspecified)	7.82 µM	8.57 µM	6.77 µM	1.14 µM	7.15 µM	2.52 µM	–
COC(=O)N1N=C(c2cccc(OC)c2)CC1c1cc(OC)c(OC)c(OC)c1 (stereo unspecified)	1.87 µM	2.59 µM	1.3 µM	1.53 µM	0.35 µM	2.78 µM	–
COC(=O)N1N=C(c2cccc(Cl)c2)CC1c1cc(OC)c(OC)c(OC)c1 (stereo unspecified)	1.24 µM	0.34 µM	0.14 µM	0.16 µM	0.11 µM	1.54 µM	inhibition (HeLa [2]): Dose-dependent effect; viability at 0.2 µM (HeLa [3]): 93%; Activity (HeLa [4]): 3.3%; Activity (HeLa [5]): 3.19%; Activity (HeLa [6]): 0.481%; viability at 0.4 µM (HeLa [7]): 93.1%; Activity (HeLa [8]): 3.26%; Activity (HeLa [9]): 3.13%; Activity (HeLa [10]): 0.511%; Activity (HeLa [11]): Active
CCOc1cccc(C2=NN(C(=O)OC)C(c3cc(OC)c(OC)c(OC)c3)C2)c1 (stereo unspecified)	8.36 µM	5.29 µM	4.45 µM	4.97 µM	0.19 µM	0.76 µM	–
COc1ccc(/C=C\c2cc(OC)c(OC)c(OC)c2)cc1OP(=O)([O-])[O-].[Na+].[Na+] [FOSBRETABULIN DISODIUM]	0.19 µM	0.16 µM	0.062 µM	0.019 µM	0.065 µM	0.32 µM	viability at 0.05 µM (HeLa [12]): 75.4%; Activity (HeLa [13]): 18.9%; Activity (HeLa [14]): 5.08%; Activity (HeLa [15]): 0.6%; inhibition in vivo at 10 mg/kg (HeLa [16]): 79.4%; Activity (HeLa [17]): 0.187 g
COC(=O)N1N=C(c2ccc(OC)c(OC)c2)CC1c1cc(OC)c(OC)c(OC)c1 (stereo unspecified)	4.21 µM	3.93 µM	9.2 µM	3.39 µM	9.9 µM	11.4 µM	–
CCCOC(=O)N1N=C(c2cccc(O)c2)CC1c1cc(OC)c(OC)c(OC)c1 (stereo unspecified)	> 10 µM	> 10 µM	15.2 µM	> 10 µM	10 µM	11.1 µM	–
COC(=O)N1N=C(c2ccccc2)CC1c1ccc(OC)cc1 (stereo unspecified)	12 µM	15.3 µM	> 10 µM	12.7 µM	> 10 µM	> 10 µM	–
CCCOC(=O)N1N=C(c2ccccc2)CC1c1cc(OC)c(OC)c(OC)c1 (stereo unspecified)	> 10 µM	> 10 µM	> 10 µM	> 10 µM	14.4 µM	10.8 µM	–
COC(=O)N1N=C(c2ccccc2)CC1c1ccccc1 (stereo unspecified)	> 10 µM	> 10 µM	> 10 µM	> 10 µM	> 10 µM	> 10 µM	–
COc1ccc(C2=NN(C(=O)OCc3ccccc3)C(c3cc(OC)c(OC)c(OC)c3)C2)cc1 (stereo unspecified)	> 10 µM	> 10 µM	> 10 µM	> 10 µM	> 10 µM	> 10 µM	–
COc1cccc(C2=NN(C(=O)OCc3ccccc3)C(c3cc(OC)c(OC)c(OC)c3)C2)c1 (stereo unspecified)	> 10 µM	> 10 µM	> 10 µM	> 10 µM	> 10 µM	> 10 µM	–
COC(=O)N1N=C(c2cc(OC)c(OC)c(OC)c2)CC1c1cc(OC)c(OC)c(OC)c1 (stereo unspecified)	9.72 µM	12.6 µM	7.85 µM	5.68 µM	11.1 µM	14 µM	–
CCOC(=O)N1N=C(c2cccc(O)c2)CC1c1cc(OC)c(OC)c(OC)c1 (stereo unspecified)	1.79 µM	5.12 µM	11.6 µM	3.28 µM	4.71 µM	9.75 µM	–
COc1cc(C2CC(c3ccccc3)=NN2C(=O)OCc2ccccc2)cc(OC)c1OC (stereo unspecified)	> 10 µM	> 10 µM	> 10 µM	> 10 µM	> 10 µM	> 10 µM	–
